The text below walks through data of patent US12642271B2, “Active compound combinations comprising a (thio)carboxamide derivative and a fungicidal compound” (Bayer CropScience Aktiengesellschaft, priority 2011, dated 2026).

“And” between values parts separate entries of the source, which are not always exact repeats. Identical values can stand only once. Like-named read-outs stand apart in the source and are kept apart here.

For assay [1], the system named is Leptosphaeria nodorum. The experiment in a line: Leptosphaeria nodorum test (wheat)/preventive. Particulars: for pest or weed control at 40 ppm / pest or weed control at 10 ppm / pest or weed control at 80 ppm: Parastagonospora nodorum, 192 h, read-out: Efficacy in % found; for pest or weed control at 40 ppm: 40 ppm a.i. In kind it is in vivo.
For assay [2], the system named is Pyrenophora teres. Kind of assay: Pyrenophora teres-test (barley)/preventive. The settings on record: preventive, evaluated 8 days after inoculation. It is filed as in vivo.
Assay [3] deals with Septoria tritici. The experiment in a line: Septoria tritici-test (wheat)/preventive. In kind it is in vivo. The settings on record: preventive, evaluated 21 days after inoculation.
The subject of assay [4] is Venturia inaequalis. The experiment in a line: Venturia test (apples)/preventive. The settings on record: for Efficacy in % found: Table 2d; for pest or weed control at 0.5 ppm / pest or weed control at 0.25 ppm: Venturia inaequalis, 240 h.
Description: After the spray coating has dried on, the plants are inoculated with an aqueous conidia suspension of the causal agent of apple scab (Venturia inaequalis) and then remain for 1 day in an incubation cabinet at approximately 20° C. and a relative atmospheric humidity of 100%.
The plants are then placed in a greenhouse at approximately 21° C. and a relative atmospheric humidity of approximately 90%.
The test is evaluated 10 days after the inoculation.
Assay [5] concerns Fusarium nivale (var. majus). Kind of assay: Fusarium nivale (var. majus)-test (wheat)/preventive. The settings on record: for pest or weed control at 10 ppm / pest or weed control at 40 ppm: Microdochium nivale, in Triticum aestivum, 120 h.
Description: After the spray coating has been dried, the plants are slightly injured by using a sandblast and afterwards they are sprayed with a conidia suspension of Fusarium nivale (var. majus).
The plants are placed in the greenhouse under a translucent incubation cabinet at a temperature of approximately 10° C. and a relative atmospheric humidity of approximately 100%.
The test is evaluated 5 days after the inoculation.
Assay [6] deals with Alternaria solani. The experiment in a line: Alternaria test (tomatoes)/preventive. It is filed as in vivo. Particulars: Alternaria solani, 72 h, read-out: Efficacy in % found.
For assay [7], the system named is Puccinia triticina. The experiment in a line: Puccinia triticina-test (wheat)/preventive. It is filed as in vivo. The settings on record: preventive, evaluated 8 days after inoculation.
In assay [8] the test system is Phytophthora infestans. Kind of assay: whole plant or invertebrate. In kind it is in vivo.
In assay [9] the test system is Blumeria graminis f.sp. hordei. Kind of assay: Blumeria test (barley)/preventive. It is filed as in vivo.
The subject of assay [10] is Sphaerotheca fuliginea. The experiment in a line: Sphaerotheca test (cucumbers)/preventive. In kind it is in vivo. Particulars: for Efficacy in % found: Table 4d; for pest or weed control at 0.25 ppm: 0.25 ppm a.i.
The mark [11] stands for this setting: Phytophthora infestans, 72 h, read-out: Efficacy in % found.
The mark [12] stands for this setting: application rate 10 ppm, wheat, preventive, evaluated 8 days after inoculation.
The mark [13] stands for this setting: Zymoseptoria tritici, 504 h, application rate 10 ppm a.i., read-out: Efficacy in % found.
The mark [14] stands for this setting: read-out: Efficacy in % found, Table 8c, 10 ppm a.i.
Setting [15] is: Podosphaera fuliginea, 168 h, Table 4c, read-out: Efficacy in % found.
[16] abbreviates: read-out: Efficacy in % found, Table 2b, 0.25 ppm a.i.
Setting [17] is: Blumeria graminis, 168 h, Table 6d, 10 ppm, read-out: Efficacy in % found.

Consider `Cn1cc(C(=O)Nc2ccccc2C2CC2C2CC2)c(C(F)F)n1` (centres unmarked) [B2.22, sedaxane], for which the “Efficacy in % found” value in [1] (Table 9a, 80 ppm a.i.) turned out to be 0%; in assay [2] (application rate 20 ppm a.i.), 0%; in assay [3] (application rate 20 ppm a.i.) it was 14%; in assay [4] (0.5 ppm a.i.), 53%; in assay [5] (Table 8e, 80 ppm a.i.), 0%.

Turning to `OC(Cc1ccccc1Cl)(Cn1nc[nH]c1=S)C1(Cl)CC1` (centres unmarked) [B1.41, prothioconazole], the pest or weed control at 2 ppm in assay [6] (Table 3c, 2 ppm) is 0%. Also, the pest or weed control at 20 ppm in assay [7] (Puccinia triticina, 192 h, application rate 20 ppm a.i., read-out: Efficacy in % found) came to 11%. For the same compound, the pest or weed control at 80 ppm in assay [7] (Puccinia triticina, 192 h, application rate 80 ppm a.i., read-out: Efficacy in % found) came out at 11%; in assay [3] (Zymoseptoria tritici, 504 h, application rate 80 ppm a.i., read-out: Efficacy in % found), 43%. For the same compound, in [2] (application rate 20 ppm a.i.), the “Efficacy in % found” value is 14% and 22%.

As for `CO/N=C(/C1=NOCCO1)c1ccccc1Oc1ncnc(Oc2ccccc2Cl)c1F` [B3.12, fluoxastrobin], the pest or weed control at 2 ppm in assay [8] (setting [11]) was 49%. The pest or weed control at 40 ppm in assay [1] (Table 9a) was 43%. The pest or weed control at 10 ppm in assay [1] (setting [12]) stood at 0%; in [3] (setting [13]), 14%; in [5] (setting [14]) it was 50%; in assay [5] (read-out: Efficacy in % found, Table 8e, 10 ppm a.i.), 43%. Also, the pest or weed control at 0.5 ppm in assay [4] (read-out: Efficacy in % found, Table 2b, 0.5 ppm a.i.) came to 61%.

Take `O=C(NCCc1ncc(C(F)(F)F)cc1Cl)c1ccccc1C(F)(F)F` [B2.6, fluopyram]: the pest or weed control at 20 ppm in assay [9] (Blumeria graminis, 168 h, Table 6d, 20 ppm, read-out: Efficacy in % found) stood at 11%; in assay [3] (Zymoseptoria tritici, 504 h, application rate 20 ppm a.i., read-out: Efficacy in % found) it was 57%. Further, the pest or weed control at 80 ppm in [1] (Table 9a, 80 ppm a.i.) came to 0%; in assay [1] (application rate 80 ppm, wheat, preventive, evaluated 8 days after inoculation), 0%. The “Efficacy in % found” value in assay [2] (application rate 20 ppm a.i.) is recorded as 57%.

Take `CO/C=C(/C(=O)OC)c1ccccc1Oc1cc(Oc2ccccc2C#N)ncn1` [B3.3, azoxystrobin]: the “Efficacy in % found” value in assay [8] (Table 1b, 1 ppm a.i.) is 50%; in assay [10] (2 ppm a.i.), 50%; in assay [9] (Table 6a, 10 ppm a.i.) it was 0%; in assay [3] (application rate 10 ppm a.i.), 29%; in assay [5] (Table 8e, 40 ppm a.i.), 0%.

Consider metalaxyl [B12.9], for which the “Efficacy in % found” value in assay [8] (Table 1a, 5 ppm a.i.) was 18%; in assay [1] (Table 9c, 100 ppm a.i.), 33%; in [1] (application rate 400 ppm a.i., wheat, preventive, evaluated 8 days after inoculation), 0%; in assay [7] (application rate 400 ppm a.i.) it was 11%; in [3] (application rate 100 ppm a.i.), 10%.

Turning to `Cc1ccc(C(C)NC(=O)[C@@H](NC(=O)OC(C)C)C(C)C)cc1` (some centres unmarked) [B9.4, iprovalicarb], the “Efficacy in % found” value came out at 48% in assay [8] (Table 1a, 5 ppm a.i.); 0% in assay [9] (Table 6e, 100 ppm a.i.); 33% in assay [2] (application rate 100 ppm a.i.).

On to `CC(C)c1ccccc1CN(C(=O)c1c(C(F)F)nn(C)c1F)C1CC1` [A1, N-cyclopropyl-3-(difluoromethyl)-5-fluoro-N-(2-isopropylbenzyl)-1-methyl-1H-pyrazole-4-carboxamide], for which the pest or weed control at 0.25 ppm came to 0% in assay [8] (setting [11]); 53% in [6] (Table 3b); 19% in assay [10] (Podosphaera fuliginea, 168 h, Table 4a, read-out: Efficacy in % found); 48% in [10] (Podosphaera fuliginea, 168 h, Table 4b, read-out: Efficacy in % found); 21% in assay [10] (setting [15]); 31% in [4] (setting [16]). For the same compound, the pest or weed control at 0.25 ppm in assay [4] (read-out: Efficacy in % found, Table 2c, 0.25 ppm a.i.) came to 0%. Besides, the pest or weed control at 100 ppm in assay [8] (setting [11]) came out at 0%. Also, the pest or weed control at 0.5 ppm in [6] (Table 3a, 0.5 ppm a.i.) amounted to 38%; in [6] (Table 3b, 0.5 ppm) it was 59%; in assay [6] (Table 3c, 0.5 ppm) it was 16%; in assay [10] (Podosphaera fuliginea, 168 h, Table 4a, 0.5 ppm a.i., read-out: Efficacy in % found) it was 69%; in assay [4] (read-out: Efficacy in % found, Table 2a, 0.5 ppm a.i.) it was 57%; in [4] (read-out: Efficacy in % found, Table 2f, 0.5 ppm a.i.), 29%. Moreover, the pest or weed control at 10 ppm in [1] (Table 9a, 10 ppm a.i.) was 29%; in assay [1] (Table 9b, 10 ppm a.i.), 0%; in [1] (Table 9c, 10 ppm a.i.) it was 50%; in assay [3] (setting [13]) it was 50%; in assay [5] (read-out: Efficacy in % found, Table 8a, 10 ppm), 0%. The pest or weed control at 40 ppm in assay [1] (Table 9a) came to 71%; in [5] (read-out: Efficacy in % found, Table 8a, 40 ppm), 29%. For the same compound, the pest or weed control at 62.5 ppm in assay [7] (Puccinia triticina, 192 h, application rate 62.5 ppm a.i., read-out: Efficacy in % found) was determined as 57%.

As for `Cc1nn(C)c(F)c1C(=O)Nc1ccccc1C(C)CC(C)C` (centres unmarked) [B2.20, penflufen], the “Efficacy in % found” value in assay [10] (0.5 ppm a.i.) came to 0%; in [1] (application rate 20 ppm, wheat, preventive, evaluated 8 days after inoculation), 0%; in [2] (application rate 20 ppm a.i.), 29%; in assay [3] (application rate 20 ppm a.i.), 29%; in assay [5] (Table 8a, 20 ppm), 14%; in [5] (Table 8b, 20 ppm a.i.), 29%.

Consider `Cn1nc(C(F)F)c(C(=O)N(Cc2c(C(F)(F)F)ccc(Cl)c2F)C2CC2)c1F` [A18, N-[3-chloro-2-fluoro-6-(trifluoromethyl)benzyl]-N-cyclopropyl-3-(difluoromethyl)-5-fluoro-1-methyl-1H-pyrazole-4-carboxamide], for which the pest or weed control at 0.25 ppm in assay [8] (setting [11]) came out at 0%; in assay [6] (Table 3b), 30%; in assay [10] (setting [15]), 13%; in [4] (setting [16]), 0%. In addition, the pest or weed control at 100 ppm in assay [8] (setting [11]) was determined as 32%. The pest or weed control at 0.5 ppm in assay [6] (Table 3a, 0.5 ppm a.i.) was 30%; in [6] (Table 3b, 0.5 ppm), 43%. In addition, the pest or weed control at 10 ppm was determined as 29% in assay [9] (Blumeria graminis, 168 h, Table 6e, 10 ppm a.i., read-out: Efficacy in % found); 56% in [9] (setting [17]); 0% in [1] (setting [12]); 33% in assay [7] (Puccinia triticina, 192 h, application rate 10 ppm a.i., read-out: Efficacy in % found); 89% in assay [3] (setting [13]); 43% in assay [5] (read-out: Efficacy in % found, Table 8b, 10 ppm a.i.).

`Cn1cc(C(=O)Nc2ccccc2-c2cc(F)c(F)c(F)c2)c(C(F)F)n1` [B2.8, fluxapyroxad]: the “Efficacy in % found” value is listed as 0% in assay [10] (0.5 ppm a.i.); 0% in assay [1] (setting [12]); 0% in assay [7] (application rate 10 ppm a.i.); 67% in assay [7] (application rate 40 ppm a.i.); 0% in assay [3] (application rate 10 ppm a.i.); 19% in [4] (0.25 ppm a.i.).

Take `CC(C)(C)C(O)(CCc1ccc(Cl)cc1)Cn1cncn1` (centres unmarked) [B1.47, tebuconazole]: the pest or weed control at 10 ppm was found to be 50% in assay [9] (Blumeria graminis, 168 h, Table 6f, 10 ppm a.i., read-out: Efficacy in % found); 33% in assay [9] (setting [17]); 33% in assay [1] (setting [12]); 25% in [5] (setting [14]). For the same compound, in assay [7] (Puccinia triticina, 192 h, application rate 4 ppm a.i., read-out: Efficacy in % found), the pest or weed control at 4 ppm worked out at 33%. For the same compound, the pest or weed control at 40 ppm in [3] (Zymoseptoria tritici, 504 h, application rate 40 ppm a.i., read-out: Efficacy in % found) came out at 71%; in assay [5] (read-out: Efficacy in % found, Table 8e, 40 ppm a.i.) it was 0%.
